In US11279733B2, “Peptide antibiotics” (priority 2017, dated 2022):
Converted amounts (≈) assume the structure as drawn. Positions of bridges follow the written chain, without caps; N, C: chain ends. Non-standard residues stand in square brackets, D forms with d. Residues, ends and D or L forms follow the SMILES beside them. *: point of attachment. dPhe(4-CN) = N#Cc1ccc(C[C@@H](N)C(=O)O)cc1; Decanoyl(3R-OH) = CCCCCCC[C@@H](O)CC(=O)*; dPhe(4-F) = N[C@H](Cc1ccc(F)cc1)C(=O)O; d2Nal = N[C@H](Cc1ccc2ccccc2c1)C(=O)O; dDab = NCC[C@@H](N)C(=O)O; Dab = NCC[C@H](N)C(=O)O

Tests used:
[1] = tested on: A. baumannii ATCC 19606; conditions: ATCC 19606
In short: (§1)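 Mid-log cultures grown in Mueller Hinton broth at 37° C were tested by 2-fold broth microdilution at 5×10^5 CFU/mL final. Compounds were dissolved in water and tested over a final range of 32 to 0.015 μg/mL.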

[2] = tested on: A. baumannii GN_093 PmxR; conditions: GN 093 PmxR
In short: as §1

[3] = tested on: E. coli ATCC 25922; conditions: ATCC 25922
In short: as §1

[4] = tested on: K. pneumoniae ATCC 13883; conditions: ATCC 13883
In short: as §1

[5] = tested on: K. pneumoniae ATCC 700603, MDR; conditions: ATCC 700603
In short: as §1

[6] = tested on: K. pneumoniae ATCC BAA-2146, NDM-1 pos; conditions: ATCC BAA-2146
In short: as §1

[7] = tested on: K. pneumoniae GN_102 PmxR; conditions: GN 102 PmxR
In short: as §1

[8] = tested on: K. pneumoniae GN_106, PmxR; conditions: GN 106, PmxR
In short: as §1

[9] = tested on: P. aeruginosa ATCC 27853; conditions: ATCC 27853
In short: as §1

[10] = tested on: P. aeruginosa GN_043, PmxR; conditions: polymyxin-resistant
In short: as §1

[11] = tested on: P. aeruginosa GN_105, PmxR; conditions: GN 105, PmxR
In short: as §1

[12] = tested on: S. aureus ATCC 25923, MSSA; conditions: ATCC 25923
In short: as §1

[13] = in vitro; conditions: human
In short: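 4000 cells/well, 24 h attach (37 °C, 5% CO2); compound 24 h; 5 μM resazurin 2 h, 37 °C; fluorescence ex/em 560/590. CC50 by curve fit.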

SMILES	MIC A. baumannii ATCC 19606 [1]	MIC A. baumannii GN_093 PmxR [2]	MIC E. coli ATCC 25922 [3]	MIC K. pneumoniae ATCC 13883 [4]	MIC K. pneumoniae ATCC 700603, MDR [5]	MIC K. pneumoniae ATCC BAA-2146, NDM-1 pos [6]	MIC K. pneumoniae GN_102 PmxR [7]	MIC K. pneumoniae GN_106, PmxR [8]	MIC P. aeruginosa ATCC 27853 [9]	MIC P. aeruginosa GN_043, PmxR [10]	MIC P. aeruginosa GN_105, PmxR [11]	MIC S. aureus ATCC 25923, MSSA [12]	CC50 at 24 h [13]
CCCCCCC[C@@H](O)CC(=O)N[C@H](CCN)C(=O)N[C@H]1CCNC(=O)[C@H](Cc2c[nH]c3ccccc23)NC(=O)[C@H](CCN)NC(=O)[C@H](CCN)NC(=O)[C@H](CC(C)C)NC(=O)[C@@H](Cc2ccc(C#N)cc2)NC(=O)[C@H](CCN)NC1=O [compound 8105, 3(R)OH-nC9CO-D-Dab-cyc[L-Dab-L-Dab-L-Dab-D-Phe(4-CN)-L-Leu-L-Dab-L-Dab-L-Trp]] ({Decanoyl(3R-OH)}-[dDab][Dab][Dab][dPhe(4-CN)]L[Dab][Dab]W; lactam 2-C)	8 mg/L (≈ 7 µM)	16 mg/L (≈ 14 µM)	4 mg/L (≈ 3.5 µM)	8 mg/L (≈ 7 µM)	8 mg/L (≈ 7 µM)	4 mg/L (≈ 3.5 µM)	4 mg/L (≈ 3.5 µM)	8 mg/L (≈ 7 µM)	2 mg/L (≈ 1.75 µM)	2 mg/L (≈ 1.75 µM)	2 mg/L (≈ 1.75 µM)	4 mg/L (≈ 3.5 µM)	107 µM
CCCCCCC[C@@H](O)CC(=O)N[C@H](CCN)C(=O)N[C@H]1CCNC(=O)[C@H](Cc2c[nH]c3ccccc23)NC(=O)[C@H](CCN)NC(=O)[C@H](CCN)NC(=O)[C@H](CC(C)C)NC(=O)[C@@H](Cc2ccc3ccccc3c2)NC(=O)[C@H](CCN)NC1=O [compound 8113, 3(R)OH-nC9CO-D-Dab-cyc[L-Dab-L-Dab-L-Dab-D-Ala(2-Na)-L-Leu-L-Dab-L-Dab-L-Trp]] ({Decanoyl(3R-OH)}-[dDab][Dab][Dab][d2Nal]L[Dab][Dab]W; lactam 2-C)	8 mg/L (≈ 6.85 µM)	8 mg/L (≈ 6.85 µM)	8 mg/L (≈ 6.85 µM)	4 mg/L (≈ 3.43 µM)	8 mg/L (≈ 6.85 µM)	8 mg/L (≈ 6.85 µM)	8 mg/L (≈ 6.85 µM)	8 mg/L (≈ 6.85 µM)	8 mg/L (≈ 6.85 µM)	4 mg/L (≈ 3.43 µM)	4 mg/L (≈ 3.43 µM)	4 mg/L (≈ 3.43 µM)	28 µM
CCCCCCC[C@@H](O)CC(=O)N[C@H](CCN)C(=O)N[C@H]1CCNC(=O)[C@H](Cc2c[nH]c3ccccc23)NC(=O)[C@H](CCN)NC(=O)[C@H](CCN)NC(=O)[C@H](CC(C)C)NC(=O)[C@@H](Cc2ccc(F)cc2)NC(=O)[C@H](CCN)NC1=O [compound 8119, 3(R)OH-nC9CO-D-Dab-cyc[L-Dab-L-Dab-L-Dab-D-Phe(4-F)-L-Leu-L-Dab-L-Dab-L-Trp]] ({Decanoyl(3R-OH)}-[dDab][Dab][Dab][dPhe(4-F)]L[Dab][Dab]W; lactam 2-C)	8 mg/L (≈ 7.05 µM)	8 mg/L (≈ 7.05 µM)	8 mg/L (≈ 7.05 µM)	4 mg/L (≈ 3.52 µM)	8 mg/L (≈ 7.05 µM)	4 mg/L (≈ 3.52 µM)	4 mg/L (≈ 3.52 µM)	4 mg/L (≈ 3.52 µM)	4 mg/L (≈ 3.52 µM)	2 mg/L (≈ 1.76 µM)	2 mg/L (≈ 1.76 µM)	16 mg/L (≈ 14.1 µM)	64 µM
